Measured values taken from US11814444B2, “Cyclic polypeptides for PCSK9 inhibition” (Ra Pharmaceuticals, Inc., priority 2018, dated 2023).
Numbered stars: 1 amine (or outer) side, 2 acyl side, 3 side chain; on linkers, the order of the positions; unused ones are H or OH. Bridge positions count the residues as written; N and C are the ends. Square brackets hold non-standard residues; d marks the D form. Peptide text beside a SMILES is read from it. X2 = O=C([C@@H]1C[C@@H](SC/C=C/C[*:3])CN1[*:1])[*:2]; Trp(7-aza) = N[C@@H](Cc1c[nH]c2ncccc12)C(=O)O; Phe(4-F) = N[C@@H](Cc1ccc(F)cc1)C(=O)O; mXylylene = c1cc(C[*:1])cc(C[*:2])c1; Ala(cPr) = N[C@@H](CC1CC1)C(=O)O; 4Pal = N[C@@H](Cc1ccncc1)C(=O)O; Aad = N[C@@H](CCCC(=O)O)C(=O)O; Pen = CC(C)(S)[C@H](N)C(=O)O; Tle = CC(C)(C)[C@H](N)C(=O)O; αMeV = CC(C)[C@](C)(N)C(=O)O; Dpg = CCCC(N)(CCC)C(=O)O; Nva = CCC[C@H](N)C(=O)O; Ac4c = NC1(C(=O)O)CCC1; Aib = CC(C)(N)C(=O)O; Mpa = O=C(O)CCS

How the values were obtained:
[1] = biological target: human PCSK9 / human LDLR EGFa domain interaction (Homo sapiens, UniProt Q8NBP7); assay: TR-FRET assay of inhibition of the PCSK9-LDLR protein-protein interaction; format: binding; conditions: 20 nM avitag-biotinylated human PCSK9, 20 nM his-tagged human LDLR EGFa domain, 2 hours, room temperature
How it was run: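 Half-maximal inhibitory concentrations came from 4-parameter fits of dose-response data. Proteins: biotinylated PCSK9, His-tagged LDLR EGFa, 20 nM each; labels 5 nM; 2 h, room temperature; buffer 50 mM HEPES, 150 mM NaCl, 5 mM CaCl2.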

PCSK9 = PCSK9 (Homo sapiens, UniProt Q8NBP7); assay: PCSK9 Alexa FRET Standard assay (displacement of AlexaFluor647 tagged cyclic peptide Reagent A); format: binding; conditions: 0.5 nM PCSK9, 20 nM AF cyclic peptide Reagent A
How it was run: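 TR-FRET displacement: 0.5 nM biotinylated PCSK9 with 1.25 nM Strep-Eu and 20 nM AlexaFluor-tagged cyclic peptide (final) in 50 mM HEPES pH 7.4, 0.15 M NaCl, 5 mM CaCl2, 0.01% BSA, 0.01% P20, ≥2 h at room temperature. IC50 from sigmoidal fit, converted to Ki via peptide KD; falling Eu counts flagged false positives.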

human PCSK9 / human LDLR EGFa domain interaction, sequence (Q8NBP7 153-692): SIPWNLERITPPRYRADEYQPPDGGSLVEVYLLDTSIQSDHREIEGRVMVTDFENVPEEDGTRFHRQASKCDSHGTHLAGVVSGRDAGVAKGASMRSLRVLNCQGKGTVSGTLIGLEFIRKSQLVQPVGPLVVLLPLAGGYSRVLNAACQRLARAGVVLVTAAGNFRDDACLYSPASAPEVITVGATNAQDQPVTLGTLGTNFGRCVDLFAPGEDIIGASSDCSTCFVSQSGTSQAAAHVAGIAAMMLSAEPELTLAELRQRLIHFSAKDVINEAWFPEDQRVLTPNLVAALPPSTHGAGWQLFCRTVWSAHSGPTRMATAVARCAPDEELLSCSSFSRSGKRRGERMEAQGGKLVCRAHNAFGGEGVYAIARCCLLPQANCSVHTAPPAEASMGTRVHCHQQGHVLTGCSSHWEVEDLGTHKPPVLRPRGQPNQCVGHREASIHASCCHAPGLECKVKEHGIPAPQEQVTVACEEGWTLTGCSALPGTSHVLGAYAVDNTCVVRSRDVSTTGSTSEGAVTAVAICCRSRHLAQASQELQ
human PCSK9 / human LDLR EGFa domain interaction, sequence (Q8NBP7 31-152 partner limits assumed): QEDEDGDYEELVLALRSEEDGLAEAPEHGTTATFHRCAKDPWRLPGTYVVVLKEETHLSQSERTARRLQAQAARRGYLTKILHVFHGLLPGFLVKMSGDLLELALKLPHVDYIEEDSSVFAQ
PCSK9, sequence (Q8NBP7 153-692): as the sequence (Q8NBP7 153-692) above

SMILES	IC50 [1]	IC50 (PCSK9)
CCC[C@@H]1NC(=O)[C@H](Cc2ccc(O)cc2)NC(=O)[C@H](CCC(=O)O)NC(=O)[C@H](Cc2ccc(F)cc2)NC(=O)[C@H](Cc2c[nH]c3ncccc23)NC(=O)[C@H]([C@@H](C)O)NC(=O)[C@H](Cc2c[nH]cn2)NC(=O)[C@H](Cc2ccc(O)cc2)NC(=O)[C@H](C(C)(C)C)NC(=O)CCSCc2cccc(c2)CSC[C@@H](C(N)=O)NC(=O)[C@H]([C@@H](C)O)NC1=O [Compound 265] ([Mpa][Tle]YHT[Trp(7-aza)][Phe(4-F)]EY[Nva]TC-NH2; linker 1-12 via mXylylene)	100 to 1000 nM	1000 to 21000 nM
CCCC1(CCC)NC(=O)[C@H](Cc2c[nH]c3ncccc23)NC(=O)[C@H]([C@@H](C)O)NC(=O)[C@@H]2CCCN2C(=O)[C@H](Cc2ccc(O)cc2)NC(=O)[C@H](C(C)(C)C)NC(=O)[C@@H](NC(C)=O)CSCc2cccc(c2)CSC[C@H](C(N)=O)NC(=O)[C@H]([C@@H](C)O)NC(=O)[C@](C)(C(C)C)NC(=O)[C@H](Cc2ccc(O)cc2)NC(=O)[C@H](C)NC1=O [Compound 188] (Ac-C[Tle]YPT[Trp(7-aza)][Dpg]AY[αMeV]T[dC]-NH2; linker 1-12 via mXylylene)	1000 to 21000 nM	1000 to 21000 nM
CCC[C@@H]1NC(=O)[C@H](Cc2c[nH]c3ncccc23)NC(=O)[C@H]([C@@H](C)O)NC(=O)[C@H](Cc2ccncc2)NC(=O)[C@H](Cc2ccc(O)cc2)NC(=O)[C@H](C(C)(C)C)NC(=O)CCSCc2cccc(c2)CSC[C@@H](C(N)=O)NC(=O)[C@H]([C@@H](C)O)NC(=O)[C@H](CCC)NC(=O)[C@H](Cc2ccc(O)cc2)NC(=O)[C@H](CCC(=O)O)NC1=O [Compound 112] ([Mpa][Tle]Y[4Pal]T[Trp(7-aza)][Nva]EY[Nva]TC-NH2; linker 1-12 via mXylylene)	100 to 1000 nM	100 to 1000 nM
CC(=O)N[C@H]1CCCCNC(=O)CCC[C@@H](C(N)=O)NC(=O)[C@H]([C@@H](C)O)NC(=O)[C@](C)(C(C)C)NC(=O)[C@H](Cc2ccc(O)cc2)NC(=O)[C@H](C)NC(=O)C(C)(C)NC(=O)[C@H](Cc2c[nH]c3ncccc23)NC(=O)[C@H]([C@@H](C)O)NC(=O)[C@@H]2C[C@@H]3CN2C(=O)[C@H](Cc2ccc(O)cc2)NC(=O)[C@@H](NC1=O)C(C)(C)SC/C=C/CS3 [Compound 350] (Ac-K[Pen]Y[X2]T[Trp(7-aza)][Aib]AY[αMeV]T[Aad]-NH2; lactam 1-12; thioether 2-4)	100 to 1000 nM	100 to 1000 nM
CC(=O)N[C@H]1CSCc2cccc(c2)CSC[C@H](C(N)=O)NC(=O)[C@H]([C@@H](C)O)NC(=O)[C@](C)(C(C)C)NC(=O)[C@H](Cc2ccc(O)cc2)NC(=O)[C@H](C)NC(=O)C2(CCC2)NC(=O)[C@H](Cc2c[nH]c3ncccc23)NC(=O)[C@H]([C@@H](C)O)NC(=O)[C@@H]2CCCN2C(=O)[C@H](Cc2ccc(O)cc2)NC(=O)[C@H](C(C)(C)C)NC1=O [Compound 185] (Ac-C[Tle]YPT[Trp(7-aza)][Ac4c]AY[αMeV]T[dC]-NH2; linker 1-12 via mXylylene)	1 to 100 nM	1 to 100 nM
CCC[C@@H]1NC(=O)[C@H](Cc2ccc(O)cc2)NC(=O)[C@H](CCC(=O)O)NC(=O)[C@H](CC2CC2)NC(=O)[C@H](Cc2c[nH]c3ncccc23)NC(=O)[C@H]([C@@H](C)O)NC(=O)[C@H](Cc2c[nH]cn2)NC(=O)[C@H](Cc2ccc(O)cc2)NC(=O)[C@H](C(C)(C)C)NC(=O)CCSCc2cccc(c2)CSC[C@@H](C(N)=O)NC(=O)[C@H]([C@@H](C)O)NC1=O [Compound 264] ([Mpa][Tle]YHT[Trp(7-aza)][Ala(cPr)]EY[Nva]TC-NH2; linker 1-12 via mXylylene)	100 to 1000 nM	1000 to 21000 nM
CNC(=O)[C@H]1CSCc2cccc(c2)CSC[C@H](NC(C)=O)C(=O)N[C@@H](C(C)(C)C)C(=O)N[C@@H](Cc2ccc(O)cc2)C(=O)N2CCC[C@H]2C(=O)N[C@@H]([C@@H](C)O)C(=O)N[C@@H](Cc2c[nH]c3ncccc23)C(=O)NC(C)(C)C(=O)N[C@@H](C)C(=O)N[C@@H](Cc2ccc(O)cc2)C(=O)N[C@@](C)(C(C)C)C(=O)N[C@@H]([C@@H](C)O)C(=O)N1 [Compound 189] (Ac-C[Tle]YPT[Trp(7-aza)][Aib]AY[αMeV]T[dC]-NHMe; linker 1-12 via mXylylene)	21000 to 50000 nM	1000 to 21000 nM
